{
  "source": "patent US20050043264A1",
  "about": "“Methods of inhibiting neurodegenerative disease” (priority 2003, published 2005)",
  "key": {"Dp35": {"system": "Dp35", "test": "Dp35 cleavage in HA-tagged Dp35 transfected BG2-c2 cells (anti-HA immunoblot)", "type": "cell-based, Drosophila melanogaster", "settings": "BG2-c2 cells with HA-tagged Dp35, A23187 with 5 μM CaCl2, 24 hours", "text": "Like Abl, p35 is conserved in Drosophila and functions to modulate Cdk5 activity during neurite outgrowth (Connell-Crowley et al., 2000, Curr. Biol. 10:599). In the AD brain, mammalian p35 is cleaved into p25 by calpain to deregulate Cdk5 (Lee et al., 2000, Nature 405:360). Although a putative calpain is also present in Drosophila (Jekely and Friedrich, 1999, J. Biol. Chem. 274:23893), the consensus calpain cleavage site is absent in Drosophila p35 (Dp35) (FIG. 5A). Therefore, it was unclear whether Dp35 would be converted into p25 upon Aβ42 stimulation. To investigate this possibility, carboxyl-terminal HA-tagged Dp35 was transfected into BG2-c2 cells before treating them with Aβ42or A23187/Ca^2+ (calcium ionophore). […] To analyze the Dp35 cleavage in vivo, transgenic flies co-expressing Dp35 and Aβ42 in the developing eyes were generated using a gmr-GAL4 driver. Consistent with the in vitro result, no visible cleavage or reduction of the Dp35 protein in the Aβ42 transgenic flies were observed (FIG. 5B, right panel)."}, "Cdk5 [1]": {"system": "Cdk5", "test": "Cdk5 kinase activity in Aβ42-treated IMR-32 cells (histone H1 kinase assay)", "type": "cell-based, human", "settings": "Aβ42 (20 μM) 24 hours, STI571 pretreatment 24 hours", "procedure": "(§1) A kinase assay was performed by washing immunoprecipitates three times with kinase reaction buffer (50 mM HEPES [pH 7.0], 10 mM MgCl2, and 1 mM DTT). The beads with target proteins were incubated with kinase reaction buffer containing 2 μg of substrate (histone H1)(Calbiochem, San Diego, Calif.) and 10 μCi of ^33Pγ-ATP in a final volume of 40 μl at 30° C. for 30 minutes.\n(§2) To determine if the role of Abl in Drosophila neurodegeneration is conserved in mammals, Abl kinase activity in Aβ42-induced mammalian neuronal apoptosis was investigated. […] Formation of p25 has been considered a causative agent that contributes to the deregulation of Cdk5 in human AD (Lee et al., 2000, Nature 405:360; Patrick et al., 1999, Nature 402:615). […] Thus, it was important to determine whether the conversion of p35 into p25 is sufficient to deregulate Cdk5 activity while Abl activation is inhibited. […] The cells were then assayed for Cdk5 kinase activity and Y-15 phosphorylation."}, "Cdk5-pY15 [2]": {"system": "Cdk5-pY15", "test": "Cdk5-pY15 in Aβ42-treated IMR-32 cells (immunoblot)", "type": "cell-based, human", "settings": "Aβ42 (20 μM) 24 hours, STI571 pretreatment 24 hours", "procedure": "(§3) Cell lysate was produced in lysis buffer or extract buffer (Juang and Hoffmann,1999, Oncogene 18:5138) for Cdk5 immunoprecipitation. Proteins were analyzed by direct Western blotting (30 μg/lane) or blotting after immunoprecipitation (1˜2 mg/immunoprecipitation). Immunoprecipitates were collected by binding to protein G PLUS/Protein A-Agarose (Oncogene Research Products, Nottingham UK). The antibodies used are listed below: anti-Cdk5 antibody (clone DC17), (Upstate, Charlottesville, Va.); sc-750, (Santa Cruz Biotechnology, Inc., Santa Cruz Calif.), anti-Cdk5-pY15 antibody (sc-1 2919),(Santa Cruz Biotechnology, Inc., Santa Cruz C), anti-HA antibody (BAbCO, Berkely, Calif.), anti-p35 antibody (sc-820), (Santa Cruz Biotechnology, Inc., Santa Cruz Calif.), and affinity-purified Ena polyclonal antibody (generated by Dr. F. M. Hoffmann' Lab) (McArdle Laboratory for Cancer Research and Laboratory of Genetics, University of Wisconsin-Madison) ECL detection reagent (NEN, Boston, Mass.) was used to detect the immunoreactive proteins.\n(§4) To determine if the role of Abl in Drosophila neurodegeneration is conserved in mammals, Abl kinase activity in Aβ42-induced mammalian neuronal apoptosis was investigated. […] Formation of p25 has been considered a causative agent that contributes to the deregulation of Cdk5 in human AD (Lee et al., 2000, Nature 405:360; Patrick et al., 1999, Nature 402:615). […]"}, "p35": {"system": "p35", "test": "Cleavage of p35 into p25 in Aβ42-treated IMR-32 cells (immunoblot)", "type": "cell-based, human", "settings": "Aβ42 (20 μM) 24 hours, STI571 pretreatment 24 hours", "procedure": "as §3, §4"}, "BG2-c2 cells": {"system": "BG2-c2 cells", "test": "Modified MTT cell viability assay, Aβ42-induced neuronal death", "type": "cell-based, Drosophila melanogaster", "settings": "BG2-c2 cells treated with Aβ42; dsRNA transfected two days before Aβ42 for 24 hours", "procedure": "(§5) The modified MTT assay (Sigma, St Louis, Mo.) was used to quantify neuronal cell viability (Lee et al., 2000, Nature 405:360). The intensities were measured using an optical density reader (SpectroMAXplus, Molecular Devices, Sunnyvale, Calif.) at 570 nm (background: 630 nm) and proportionally represented the viable cell numbers."}, "Cdk5 [3]": {"system": "Cdk5", "test": "In vitro Cdk5 kinase assay of immunoprecipitates with histone H1 as substrate, BG2-c2 cells", "type": "cell-based, Drosophila melanogaster", "settings": "for Abl kinase activity regulation, used to confirm Abl requirement for modulation of Cdk5 kinase: BG2-c2 cells, other Abl kinase regulating agents", "procedure": "as §1\nWhether Cdk5 was activated in the Abl-Cdk5 complex was also investigated. Cdk5 was immunoprecipitated from the cell lysate for an vitro kinase assay, using histone H1 as a substrate (Connell-Crowley et al., 2000, Curr. Biol. 10:599). Similar to results reported for mammalian cells (Alvarez et al., 2001, Exp. Cell Res. 264:266), Drosophila Cdk5 kinase activity was elevated following Aβ42 treatment as compared to controls (FIG. 2B, bottom panel). […] Moreover, other Abl kinase regulating agents including doxorubicin (DX) and erbstatin analog (EA) were used to activate or suppress Abl kinase activity, respectively, and confirmed that Abl kinase activity was required for modulation of Cdk5 kinase."}, "Cdk5-pY15 [4]": {"system": "Cdk5-pY15", "test": "Cdk5-Y15 phosphorylation (Cdk5-pY15) immunoblot, BG2-c2 cells", "type": "cell-based, Drosophila melanogaster", "settings": "Aβ42 (2 μM)-treated BG2-c2 cells; STI571 20 μM 60 minutes; dsRNA 20 μg/2×10^6 cells two days before Aβ42", "procedure": "To understand the role of Drosophila Cdk5 in neurodegeneration, the phosphorylation of Cdk5-Y15 was investigated to determine if it was correlated with the pathological activation of Cdk5 in neuronal cells. Cdk5-Y15 phosphorylation (Cdk5-pY15) levels in BG2-c2 cells were examined over time following treatment with 2 μM Aβ42. The presence of […] in the immunoprecipitates was shown by immunoblotting with an anti-phospho antibody specific for Cdk5-pY15. Within 60 minutes, Aβ42 caused an elevation of Cdk5-pY15, which was coincident with an increase in Cdk5 kinase activity (FIG. 4A). […] Moreover, dsRNA-abl (20 μg/2×10^6 cells) was transfected into BG2-c2 cells to reduce Abl expression two days before Aβ42 treatment."}, "BG2-c2 neuronal cells": {"system": "BG2-c2 neuronal cells", "test": "Cdk5 subcellular translocalization by immunostaining and confocal microscopy", "type": "cell-based, Drosophila melanogaster", "settings": "2 μM Aβ42 one hour, agent given simultaneously with or before Aβ42 (BL-1 5 μM)"}, "IMR-32 cells": {"system": "IMR-32 cells", "test": "Neuronal viability, Aβ42-induced IMR-32 neuronal death", "type": "cell-based, human", "settings": "IMR-32 cells pretreated 24 hours with STI571, then Aβ42 24 or 72 hours", "procedure": "as §5, §2"}},
  "note": "Entries after “also recorded” stand apart in the source; their conditions may differ. Structures can show the parent of a compound that is named as a salt.",
  "data": [
    {"smiles": "CNc1ccc2oc(C[C@H]3O[C@@]4(CC[C@H]3C)O[C@H]([C@H](C)C(=O)c3ccc[nH]3)[C@H](C)C[C@H]4C)nc2c1C(=O)O", "note": "[A23187]", "values": [
      {"measurement": "Dp35 cleavage / Dp35 protein levels", "setting": "Dp35", "value": "no noticeable cleavage or reduction; also recorded: no detectable cleavage or reduction"}
    ]},
    {"smiles": "CCCC[C@@H](C=O)NC(=O)[C@H](CC(C)C)NC(=O)OCc1ccccc1", "note": "[Calpeptin]", "values": [
      {"measurement": "Cdk5 kinase activity", "setting": "Cdk5 [1]", "value": "considerably reduced"},
      {"measurement": "Cdk5-pY15 (Y15 phosphorylation)", "setting": "Cdk5-pY15 [2]", "value": "did not diminish"},
      {"measurement": "Cleavage of p35 into p25 (formation of p25)", "setting": "p35", "value": "blockade of p35 cleavage"}
    ]},
    {"smiles": "Cc1ccc(NC(=O)c2ccc(CN3CCN(C)CC3)cc2)cc1Nc1nccc(-c2cccnc2)n1", "note": "[STI571, imatinib mesylate]", "values": [
      {"measurement": "Aβ42-induced neuronal death (neuronal viability, MTT)", "setting": "BG2-c2 cells", "value": "rescued Aβ42-induced neuronal death; also recorded: suppressed"},
      {"measurement": "Cdk5 kinase activity (histone H1 phosphorylation)", "setting": "Cdk5 [3]; Aβ42 (2 μM)-treated BG2-c2 cells, STI571 20 μM 60 minutes, dsRNA 20 μg/2×10^6 cells two days before Aβ42", "value": "sharply diminished; also recorded: reduced"},
      {"measurement": "Cdk5-pY15 (Cdk5-Y15 phosphorylation)", "setting": "Cdk5-pY15 [4]", "value": "diminished; also recorded: reduced"},
      {"measurement": "Aβ42-stimulated Cdk5 translocalization to the perinuclear cytoplasm", "setting": "BG2-c2 neuronal cells", "value": "markedly suppressed; also recorded: no Abl or Cdk5 protein translocalization to perinuclear region"},
      {"measurement": "Aβ42-induced IMR-32 neuronal death (neuronal viability)", "setting": "IMR-32 cells", "value": "rescued the neuronal death; also recorded: effectively suppressed"},
      {"measurement": "Cdk5 kinase activity", "setting": "Cdk5 [1]", "value": "abolished; also recorded: suppressed"},
      {"measurement": "Cdk5-pY15 (Y15 phosphorylation)", "setting": "Cdk5-pY15 [2]", "value": "abolished; also recorded: suppressed"}
    ]},
    {"smiles": "COc1cccc2c1C(=O)c1c(O)c3c(c(O)c1C2=O)C[C@@](O)(C(=O)CO)C[C@@H]3O[C@H]1C[C@H](N)[C@H](O)[C@H](C)O1", "note": "[doxorubicin]", "values": [
      {"measurement": "Abl kinase activity regulation, used to confirm Abl requirement for modulation of Cdk5 kinase", "setting": "Cdk5 [3]", "value": "activate"}
    ]},
    {"smiles": "COC(=O)C=Cc1cc(O)ccc1O", "note": "[erbstatin analog, 2,5-dihydroxymethylcinnamate]", "values": [
      {"measurement": "Abl kinase activity regulation, used to confirm Abl requirement for modulation of Cdk5 kinase", "setting": "Cdk5 [3]", "value": "suppress"}
    ]}
  ]
}
